Experimental data as given in US9957271B2, “Substituted bicyclic aza-heterocycles and analogues as sirtuin modulators” (GlaxoSmithKline, LLC, priority 2012, dated 2018).

target: T1, SIRT1 (Homo sapiens, UniProt Q96EB6); assay: Trp mass spectrometry assay of SIRT1 activity; type: biochemical; details: Trp assay; percent maximum fold activation; read-out: Trp % Fold Act
T1 sequence (Q96EB6 1-747): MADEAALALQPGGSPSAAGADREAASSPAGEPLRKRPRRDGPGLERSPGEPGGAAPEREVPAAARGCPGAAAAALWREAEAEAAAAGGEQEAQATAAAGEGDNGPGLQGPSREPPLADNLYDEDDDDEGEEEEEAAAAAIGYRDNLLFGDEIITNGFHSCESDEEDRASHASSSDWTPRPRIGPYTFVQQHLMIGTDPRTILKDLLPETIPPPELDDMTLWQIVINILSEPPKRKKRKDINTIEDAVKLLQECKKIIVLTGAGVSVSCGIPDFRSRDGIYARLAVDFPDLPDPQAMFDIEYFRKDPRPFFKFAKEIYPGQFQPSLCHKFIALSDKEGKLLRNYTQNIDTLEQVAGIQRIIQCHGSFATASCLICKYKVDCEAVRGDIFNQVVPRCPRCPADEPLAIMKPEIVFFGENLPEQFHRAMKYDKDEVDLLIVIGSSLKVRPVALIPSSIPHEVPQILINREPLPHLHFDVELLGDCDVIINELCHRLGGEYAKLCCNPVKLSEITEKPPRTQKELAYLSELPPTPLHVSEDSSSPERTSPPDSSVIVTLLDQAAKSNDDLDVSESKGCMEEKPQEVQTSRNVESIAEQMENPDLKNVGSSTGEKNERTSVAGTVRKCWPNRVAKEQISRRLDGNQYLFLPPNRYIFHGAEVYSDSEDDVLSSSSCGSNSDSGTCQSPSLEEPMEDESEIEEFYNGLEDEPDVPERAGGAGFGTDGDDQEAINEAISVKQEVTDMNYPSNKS
Outline: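 Activation readout: EC1.5 (concentration raising activity 50% over control) and percent maximum activation, from mass-spec quantitation of OAADPR or deacetylated Trp peptide. Reaction: 0.5 μM acetylated Trp peptide, 120 μM βNAD+, 10 nM bacterially expressed N-His SIRT1, pH 7.5 HEPES buffer with […], 25 min at 25° C.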

SMILES	Emax [%]
Cc1nc2ccc(N3CCCC(F)(F)C3)nn2c1C(=O)Nc1cccnn1 [Compound 994]	≥ 350
C[C@@H]1CN(c2ccc3ncc(C(=O)Nc4cccnc4)n3n2)C[C@H](C)O1 [Compound 995]	≥ 350
C[C@@H]1CN(c2ccc3ncc(C(=O)Nc4cccnn4)n3n2)C[C@H](C)O1 [Compound 996]	≥ 350
C[C@@H]1CN(c2ccc3ncc(C(=O)Nc4cncc(F)c4)n3n2)C[C@H](C)O1 [Compound 997]	≥ 350
Cc1nc2ccc(N3CCC(C(F)(F)F)C3)nn2c1C(=O)Nc1cccnn1 (stereo not drawn) [Compound 998]	≥ 350
O=C(Nc1ccccn1)c1cnn2ccc(N3CCCC3C(F)(F)F)nc12 (stereo not drawn) [Compound 999]	≥ 350

same assay, conditions: percent maximum fold activation of SIRT1; Trp peptide substrate; read-out: Trp % Fold Act

SMILES	Emax [%]
O=C(Nc1cccnc1)c1cnn2ccc(N3CCCC3C(F)(F)F)nc12 (stereo not drawn) [Compound 1000]	≥ 350
O=C(Nc1cncc(F)c1)c1cnn2ccc(N3CCCC3C(F)(F)F)nc12 (stereo not drawn) [Compound 1001]	≥ 350
C[C@@H]1CN(c2ccc3ncc(C(=O)Nc4cccnc4)n3n2)CCO1 [Compound 1002]	≥ 350
C[C@@H]1CN(c2ccc3ncc(C(=O)Nc4cccnn4)n3n2)CCO1 [Compound 1003]	≥ 350
C[C@@H]1CN(c2ccc3ncc(C(=O)Nc4cncc(F)c4)n3n2)CCO1 [Compound 1004]	≥ 350
Cc1nc2ccc(N3CCC(F)(F)C3)nn2c1C(=O)Nc1cccnn1 [Compound 1005]	≥ 350
Cc1nc2ccc(N3CCCC3C(F)(F)F)nn2c1C(=O)Nc1cccnn1 (stereo not drawn) [Compound 1006]	≥ 350
O=C(Nc1cccnc1)c1cnn2ccc(N3CCCC(C(F)(F)F)C3)nc12 (stereo not drawn) [Compound 1007]	≥ 350
O=C(Nc1ccccn1)c1cnn2ccc(N3CCCC(C(F)(F)F)C3)nc12 (stereo not drawn) [Compound 1008]	≥ 350
O=C(Nc1cncc(F)c1)c1cnn2ccc(N3CCCC(C(F)(F)F)C3)nc12 (stereo not drawn) [Compound 1009]	≥ 350
O=C(Nc1cncc(F)c1)c1cnn2ccc(N3CCCCC3C(F)(F)F)nc12 (stereo not drawn) [Compound 1010]	≥ 350
O=C(Nc1ccccn1)c1cnn2ccc(N3CCC(C(F)(F)F)C3)nc12 (stereo not drawn) [Compound 1011]	≥ 350
O=C(Nc1cccnc1)c1cnn2ccc(N3CCC(C(F)(F)F)C3)nc12 (stereo not drawn) [Compound 1012]	≥ 350
O=C(Nc1cncc(F)c1)c1cnn2ccc(N3CCC(C(F)(F)F)C3)nc12 (stereo not drawn) [Compound 1013]	≥ 350
O=C(Nc1cccnn1)c1cnn2ccc(N3CCC(C(F)(F)F)C3)nc12 (stereo not drawn) [Compound 1014]	≥ 350
Cc1nc2ccc(N3CCC[C@H]3C(F)(F)F)nn2c1C(=O)Nc1ccccn1 [Compound 1015]	≥ 350
Cc1nc2ccc(N3CCC[C@H]3C(F)(F)F)nn2c1C(=O)Nc1cccnc1 [Compound 1016]	≥ 350
Cc1nc2ccc(N3CCC[C@H]3C(F)(F)F)nn2c1C(=O)Nc1cncc(F)c1 [Compound 1017]	≥ 350
Cc1nc2ccc(N3CCC[C@H]3C(F)(F)F)nn2c1C(=O)Nc1cccnn1 [Compound 1018]	≥ 350
O=C(Nc1cccnc1)c1cnc2ccc(N3CCC[C@@H]3C(F)(F)F)nn12 [Compound 1019]	≥ 350
Cn1cc2ccc(NC(=O)c3cnc4ccc(N5CCC[C@@H]5C(F)(F)F)nn34)cc2n1 [Compound 1020]	≥ 350
O=C(Nc1cccnn1)c1cnn2ccc(N3CCCCC3C(F)(F)F)nc12 (stereo not drawn) [Compound 1021]	≥ 350

SMILES	Emax [%]
O=C(Nc1cccnn1)c1cnn2ccc(N3CCCC3C(F)(F)F)nc12 (stereo not drawn) [Compound 1022]	≥ 350
O=C(Nc1cccnn1)c1cnn2ccc(N3CCCC(C(F)(F)F)C3)nc12 (stereo not drawn) [Compound 1023]	≥ 350
COc1nccc(NC(=O)c2cnn3ccc(N4CCC[C@H]4C(F)(F)F)nc23)n1 [Compound 1024]	≥ 350
O=C(Nc1ccncn1)c1cnn2ccc(N3CCC[C@H]3C(F)(F)F)nc12 [Compound 1025]	≥ 350
O=C(Nc1cccnc1)c1cnn2ccc(N3CCC[C@H]3C(F)(F)F)nc12 [Compound 1026]	≥ 350
Cc1cncc(NC(=O)c2cnn3ccc(N4CCC[C@H]4C(F)(F)F)nc23)c1 [Compound 1027]	≥ 350
O=C(Nc1cncc(F)c1)c1cnn2ccc(N3CCC[C@H]3C(F)(F)F)nc12 [Compound 1028]	≥ 350
O=C(Nc1ccccn1)c1cnn2ccc(N3CCC[C@H]3C(F)(F)F)nc12 [Compound 1029]	≥ 350
O=C(Nc1cccnn1)c1cnn2ccc(N3CCC[C@H]3C(F)(F)F)nc12 [Compound 1030]	≥ 350
O=C(Nc1cnccn1)c1cnn2ccc(N3CCC[C@H]3C(F)(F)F)nc12 [Compound 1031]	≥ 350
Cc1nc(NC(=O)c2cnn3ccc(N4CCC[C@H]4C(F)(F)F)nc23)sc1C [Compound 1032, (S)-N-(4,5-dimethylthiazol-2-yl)-5-(2-(trifluoromethyl)pyrrolidin-1-yl)pyrazolo[1,5-a]pyrimidine-3-carboxamide]	≥ 350
Cc1nc(NC(=O)c2c(C)nn3ccc(N4CCC[C@H]4C(F)(F)F)nc23)sc1C [Compound 1033]	≥ 350
Cc1nn2ccc(N3CCC[C@H]3C(F)(F)F)nc2c1C(=O)Nc1cccnn1 [Compound 1034]	≥ 350
Cc1nn2ccc(N3CCC[C@H]3C(F)(F)F)nc2c1C(=O)Nc1ccccn1 [Compound 1035]	≥ 350
Cc1cncc(NC(=O)c2c(C)nn3ccc(N4CCC[C@H]4C(F)(F)F)nc23)c1 [Compound 1036]	≥ 350
CC1CCCN1c1ccn2ncc(C(=O)Nc3ccccn3)c2n1 (stereo not drawn) [Compound 1037]	≥ 350
Cc1nc(NC(=O)c2cnn3ccc(N4CCCC4C)nc23)sc1C (stereo not drawn) [Compound 1038]	< 350
CC1CCCN1c1ccn2ncc(C(=O)Nc3cncc(F)c3)c2n1 (stereo not drawn) [Compound 1039]	≥ 350
CC1CCCN1c1ccn2ncc(C(=O)Nc3cccnn3)c2n1 (stereo not drawn) [Compound 1040]	≥ 350
CC1CCCN1c1ccn2ncc(C(=O)Nc3cnccn3)c2n1 (stereo not drawn) [Compound 1041]	< 350
CC1CCCN1c1ccn2ncc(C(=O)Nc3ccncn3)c2n1 (stereo not drawn) [Compound 1042]	< 350
COc1nccc(NC(=O)c2cnn3ccc(N4CCCC4C)nc23)n1 (stereo not drawn) [Compound 1043]	< 350

SMILES	Emax [%]
CC1CCCN1c1ccn2ncc(C(=O)Nc3cccnc3)c2n1 (stereo not drawn) [Compound 1044]	≥ 350
Cc1cncc(NC(=O)c2cnn3ccc(N4CCCC4C)nc23)c1 (stereo not drawn) [Compound 1045]	< 350
Cc1nn2ccc(N3CCC[C@H]3C(F)(F)F)nc2c1C(=O)Nc1cnccn1 [Compound 1046]	≥ 350
Cc1nn2ccc(N3CCC[C@H]3C(F)(F)F)nc2c1C(=O)Nc1cccnc1 [Compound 1047]	≥ 350
Cc1nn2ccc(N3CCC[C@H]3C(F)(F)F)nc2c1C(=O)Nc1ccncn1 [Compound 1048]	≥ 350
COc1nccc(NC(=O)c2c(C)nn3ccc(N4CCC[C@H]4C(F)(F)F)nc23)n1 [Compound 1049]	≥ 350
Cc1nn2ccc(N3CCC[C@H]3C(F)(F)F)nc2c1C(=O)Nc1cncc(F)c1 [Compound 1050]	≥ 350
COc1nccc(NC(=O)c2cnc3ccc(N4CCC[C@@H]4C)nn23)n1 [Compound 1051]	< 350
C[C@H]1CCCN1c1ccc2ncc(C(=O)Nc3ccc(F)cn3)n2n1 [Compound 1052]	< 350
C[C@H]1CCCN1c1ccc2ncc(C(=O)Nc3ccccn3)n2n1 [Compound 1053]	≥ 350
C[C@H]1CCCN1c1ccc2ncc(C(=O)Nc3cnccn3)n2n1 [Compound 1054]	< 350
C[C@H]1CCCN1c1ccc2ncc(C(=O)Nc3cccnn3)n2n1 [Compound 1055]	≥ 350
C[C@H]1CCCN1c1ccc2ncc(C(=O)Nc3cccnc3)n2n1 [Compound 1056]	< 350
C[C@H]1CCCN1c1ccc2ncc(C(=O)Nc3ccncn3)n2n1 [Compound 1057]	< 350
Cc1cncc(NC(=O)c2cnc3ccc(N4CCC[C@@H]4C)nn23)c1 [Compound 1058]	< 350
C[C@H]1CCCN1c1ccc2ncc(C(=O)Nc3cncc(F)c3)n2n1 [Compound 1059]	< 350
O=C(Nc1ccccn1)c1cnn2ccc(N3CCC(C(F)(F)F)CC3)nc12 [Compound 1060]	≥ 350
O=C(Nc1cnccn1)c1cnn2ccc(N3CCC(C(F)(F)F)CC3)nc12 [Compound 1061]	≥ 350
O=C(Nc1cccnn1)c1cnn2ccc(N3CCC(C(F)(F)F)CC3)nc12 [Compound 1062]	≥ 350
O=C(Nc1ccncn1)c1cnn2ccc(N3CCC(C(F)(F)F)CC3)nc12 [Compound 1063]	≥ 350
COc1nccc(NC(=O)c2cnn3ccc(N4CCC(C(F)(F)F)CC4)nc23)n1 [Compound 1064]	≥ 350
Cc1nc(NC(=O)c2cnn3ccc(N4CCC(C(F)(F)F)CC4)nc23)sc1C [Compound 1065]	≥ 350
